How the values were obtained:
NF-κB = assay: Activation of NF-κB induced by TNF-α in HUVEC (EMSA); format: cell-based, human; details: 2 and 4 mM, TNF-α 100 U/ml, 90 minutes
Description: Human umbilical vein endothelial cells (HUVEC) were obtained by the procedure of Dejana et al. (J. Cell Biol 1987, 104(5), 1403-1411) by treatment of the umbilical vein with. 0.2% collagenase P from C. histolyticum (Boehnnger Manheim GmbH, Manheim, Germany) for 20 minutes at 37° C. Next, cells were cultured in M199 medium (Flow Lab, Herts, U.K.) containing 100 U/ml penicillin, 100 μg/ml streptomycin, 2.5 μg/ml amphotercin B and 20% fetal calf serum. Primary cultures were plated in 25 cm^2 plastic flasks. After 24 hours cells were washed to remove those cells which had not adhered to the flask surface. Then, the same medium containing 10% fetal calf serum, 50 μg/ml endothelial cell growth supplement factor and 100 μg/ml heparn was added. After culturing for 5-7 days, cells reached confluence and were detached from the flask surface with 0.05% trypsin and 0.02% EDTA (Flow Lab). The reaction was inhibited by the addition of fetal calf serum, and then cells were washed and plated again in culture medium. Cells were grown to confluence in gelatin-coated flasks. Cells used for the experiments were from passages 2-7.
In this experiment, HUVEC cells were preincubated with Triflusal and HTB, at concentrations in both cases of 2 and 4 mM. Then these cells were stimulated with 100 U/ml TNF-α (Genzyme Diagnostics, Cambridge, Mass. USA) for 90 minutes. […]

VCAM-1 = assay: Expression of VCAM-1 mRNA induced by TNF-α in HUVEC (RT-PCR); format: cell-based, human; details: 4 mM, TNF-α 100 U/ml, one hour
Description: Primers used for the detection of VCAM-1 mRNA by RT-PCR were designed from the human gene sequence (EMBUGenBank AC: M30257), using the Wisconsin Package Version 9.1, Genetics Computer Group (GCG), Madison, Wis. Their sequences were 5′-TGTCACTGTMGCTGCMG-3′ and 5′-TTCCAGCCTGGTTAATTC-3′, corresponding to nucleotides 1090-1108 and 1589-1572 (L. Osbom et al., Cell 1989, 59(6), 1203-1211). Total RNA was extracted from cultured cells using the guanidium isothiocyanate method (P. Chomczynski and N. Sacchi, Anal Biochem. 1987, 162(1), 156-159). cDNA first strand was synthesized from total RNA by reverse transcription reaction. […] The relative amounts of each amplified cDNA were determined by measuring the density of the bands stained with ethidium bromide using the Gel Doc documentation system and the Molecular Analyst software from Bio-Rad Laboratories, Hercules, Calif. […]
Specifically, the effect of Triflusal (4 mM) and HTB (4 mM) on the regulation of the expression of VCAM-1 mRNA induced by TNF-α (100 U/ml) in HUVEC was studied. […] The PCR products were separated by electrophoresis in a 1.8% agarose gel and were later quantified. The molecular weight of the amplification products was determined from the electrophoretic migration of DNA size standards.

TNF-α = TNF-α production induced by LPS in human PBMC (enzymatic immunoassay); format: cell-based; details: LPS 10 μg/ml, 19 hours
Description: Mononuclear cells (PBMC) were obtained from blood of healthy donors from the Hospital de Sant Pau (Barcelona) following the procedure described in example 3. Cells were diluted at a concentration of 2 million/ml in RPMI medium supplemented with 10% fetal calf serum and were incubated (37° C., 5% CO2) with triflusal, HTB or vehicle (DMSO) in the presence of 10 μg/ml E.coli lipopolysaccharide (LPS, 026:B6 serotype; Sigma), for 19 hours. The cell suspension was then centrifuged at 2,000 g for 10 minutes at 4° C., and the resulting supernatant was stored at −70° C. for later analysis. The cytokine content was determined by enzymatic immunoassay, after 1/100 dilution of the samples.

| Structure (SMILES) | inhibition of the activation of NF-κB induced by TNF-α (NF-κB) | inhibition of the expression of VCAM-1 mRNA induced by TNF-α (VCAM-1) | inhibition of LPS-induced TNF-α production (TNF-α; 0.3 mM) | inhibition of LPS-induced TNF-α production (TNF-α; 1 mM) |
| --- | --- | --- | --- | --- |
| O=C(O)c1ccc(C(F)(F)F)cc1O [HTB, 2-hydroxy-4-trifluoromethylbenzoic acid] | concentration-dependently inhibit | completely inhibit | almost completely inhibit | almost completely inhibit |
| CC(=O)Oc1cc(C(F)(F)F)ccc1C(=O)O [triflusal, 2-Acetyloxy-4-trifluoromethylbenzoic acid, reference compound] | concentration-dependently inhibit | completely inhibit | almost completely inhibit | almost completely inhibit |
